Assay results taken from ChEMBL document CHEMBL1150542, “Enzymatic synthesis and antiviral ativity of 2-deoxy-2-fluoro-ribavirin” (Bioorg Med Chem Lett, 1996).
Calls of active or inactive are those of the source.

Experiments:
[1] = test system: Human alphaherpesvirus 3; assay: Compound was tested for antiviral activity against VZV; Not active; type: functional, organism-based
[2] = test system: MDCK; assay: Compound was tested for antiviral activity against influenza B in MDCK cells at concentration of 100 uM; Not active; type: functional, cell-based; conditions: Canis lupus familiaris
[3] = test system: MDCK; assay: Compound was tested for antiviral activity against influenza A in MDCK cells at concentration of 100 uM; Not active; type: functional, cell-based; conditions: Canis lupus familiaris
[4] = test system: Human betaherpesvirus 5; assay: Compound was tested for antiviral activity against HCMV; Not active; type: functional, organism-based
[5] = test system: Human immunodeficiency virus 1; assay: Compound was tested for antiviral activity against HIV-1; Not active; type: functional
[6] = test system: Human alphaherpesvirus 2; assay: Compound was tested for antiviral activity against HSV-2; Not active; type: functional, organism-based

Measured: Activity

NC(=O)c1ncn(C2O[C@H](CO)C(O)[C@H]2F)n1 (single isomer, unassigned)
inactive: all assays above

NC(=O)c1ncn([C@@H]2O[C@H](CO)C(O)[C@H]2F)n1 (single isomer, unassigned)
inactive: all assays above
